Assay results as given in patent US9708316B2 (BRISTOL-MYERS SQUIBB COMPANY, priority 2014, dated 2017).

Legend:
HIS-TGFβR1 T204D = target: T1, HIS-TGFβR1 T204D (Homo sapiens, UniProt P36897, T204D); assay: HTRF probe-displacement assay, HIS-TGFβR1 T204D; assay type: binding; conditions: read-out: TGFβR1 (μM) IC50
T1 sequence (P36897 34-503 T204D): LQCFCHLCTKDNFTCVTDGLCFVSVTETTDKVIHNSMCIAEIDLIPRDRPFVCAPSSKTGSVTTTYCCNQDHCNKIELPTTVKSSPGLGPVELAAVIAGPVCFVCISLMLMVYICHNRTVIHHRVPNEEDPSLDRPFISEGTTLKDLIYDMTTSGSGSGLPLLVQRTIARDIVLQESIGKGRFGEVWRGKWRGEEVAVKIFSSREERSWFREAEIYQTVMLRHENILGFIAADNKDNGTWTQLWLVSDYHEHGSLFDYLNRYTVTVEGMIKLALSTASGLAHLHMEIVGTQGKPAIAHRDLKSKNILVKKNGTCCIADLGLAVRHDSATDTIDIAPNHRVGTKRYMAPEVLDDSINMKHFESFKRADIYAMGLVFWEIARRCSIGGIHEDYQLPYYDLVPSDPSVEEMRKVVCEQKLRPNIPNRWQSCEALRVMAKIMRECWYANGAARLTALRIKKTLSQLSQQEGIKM

HIS-TGFβR2 WT = HIS-TGFβR2 WT (Homo sapiens, UniProt P37173); assay: HTRF probe-displacement assay, HIS-TGFβR2 WT; assay type: binding
Chain of HIS-TGFβR2 WT (P37173 23-567): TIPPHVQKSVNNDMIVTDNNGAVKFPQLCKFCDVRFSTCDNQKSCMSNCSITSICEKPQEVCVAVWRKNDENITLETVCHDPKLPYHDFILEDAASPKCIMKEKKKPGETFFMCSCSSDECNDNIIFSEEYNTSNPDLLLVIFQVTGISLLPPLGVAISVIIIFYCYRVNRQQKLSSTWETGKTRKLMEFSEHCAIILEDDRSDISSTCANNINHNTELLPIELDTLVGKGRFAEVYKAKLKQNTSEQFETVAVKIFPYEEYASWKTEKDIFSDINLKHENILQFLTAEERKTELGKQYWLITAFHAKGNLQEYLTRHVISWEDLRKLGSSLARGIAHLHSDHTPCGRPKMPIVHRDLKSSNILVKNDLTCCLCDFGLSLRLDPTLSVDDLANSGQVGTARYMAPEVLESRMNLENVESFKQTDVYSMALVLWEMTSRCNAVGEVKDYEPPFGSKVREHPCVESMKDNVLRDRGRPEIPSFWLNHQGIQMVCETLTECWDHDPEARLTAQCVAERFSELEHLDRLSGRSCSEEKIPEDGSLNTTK

SMILES	IC50 (HIS-TGFβR1 T204D) [µM]	IC50 (HIS-TGFβR2 WT) [µM]
COc1ccc(-c2c(-c3ccnc(NC(C)=O)c3)[nH]c3c(C)ccnc23)nc1 [Example 217, N-(4-(3-(5-Methoxypyridin-2-yl)-7-methyl-1H-pyrrolo[3,2-b]pyridin-2-yl)pyridin-2-yl)acetamide]	> 15	> 15
COc1ccc(-c2c(-c3ccnc(NC(C)=O)c3)[nH]c3cc(NC(C)=O)cnc23)nc1 [Example 157, N-(4-(6-Acetamido-3-(5-methoxypyridin-2-yl)-1H-pyrrolo[3,2-b]pyridin-2-yl)pyridin-2-yl)acetamide]	0.0013	> 15
CCCNCc1cnc2c(-c3ccc(OC)cn3)c(-c3ccnc(NC(C)=O)c3)[nH]c2c1 [Example 294, N-(4-(3-(5-methoxypyridin-2-yl)-6-((propylamino)methyl)-1H-pyrrolo[3,2-b]pyridin-2-yl)pyridin-2-yl)acetamide]	0.063	> 15
COc1ccc(-c2c(-c3ccnc(NC(C)=O)c3)[nH]c3cc(N4CCC(NC(C)=O)CC4)cnc23)nc1 [Example 159, N-(4-(6-(4-Acetamidopiperidin-1-yl)-3-(5-methoxypyridin-2-yl)-1H-pyrrolo[3,2-b]pyridin-2-yl)pyridin-2-yl)acetamide]	0.0311	> 15
COc1ccc(-c2c(-c3ccnc(NC(C)=O)c3)[nH]c3cc(S(C)(=O)=O)cnc23)nc1 [Example 91, N-{4-[6-Methanesulfonyl-3-(5-methoxypyridin-2-yl)-1H-pyrrolo[3,2-b]pyridin-2-yl]pyridin-2-yl}acetamide]	0.019	> 15
COc1ccnc2c(-c3cccc(C)n3)c(-c3ccnc(NC(C)=O)c3)[nH]c12 [Example 257, N-(4-(7-Methoxy-3-(6-methylpyridin-2-yl)-1H-pyrrolo[3,2-b]pyridin-2-yl)pyridin-2-yl)acetamide]	0.003	6.21
CC(=O)Nc1cc(-c2[nH]c3c(C)ccnc3c2-c2ncc(C)s2)ccn1 [Example 218, N-(4-(7-Methyl-3-(5-methylthiazol-2-yl)-1H-pyrrolo[3,2-b]pyridin-2-yl)pyridin-2-yl)acetamide]	0.0017	0.594
COC(=O)c1cc(Cl)nc2c(-c3ccc(Cl)cn3)c(-c3ccnc(NC(C)=O)c3)[nH]c12 [Example 70, Methyl 5-chloro-3-(5-chloropyridin-2-yl)-2-(2-acetamidopyridin-4-yl)-1H-pyrrolo[3,2-b]pyridine-7-carboxylate]	7.73	> 15
COc1cnc(-c2c(-c3ccnc(NC(C)=O)c3)[nH]c3cc(Cl)cnc23)s1 [Example 239, N-(4-(6-Chloro-3-(5-methoxythiazol-2-yl)-1H-pyrrolo[3,2-b]pyridin-2-yl)pyridin-2-yl)acetamide]	0.0746	3.28
COc1ccc(-c2c(-c3ccnc(NC(C)=O)c3)[nH]c3cc(N4CCC[C@@H]4CO)cnc23)nc1 [Example 163, (R)-N-(4-(6-(2-(Hydroxymethyl)pyrrolidin-l-yl)-3-(5-methoxypyridin-2-yl)-1H-pyrrolo[3,2-b]pyridin-2-yl)pyridin-2-yl)acetamide]	0.0304	> 15
CCN1CCN(CC(=O)Nc2cc(-c3[nH]c4cc(Cl)cnc4c3-c3ccc(OC)cn3)ccn2)CC1 [Example 251, N-(4-(6-Chloro-3-(5-methoxypyridin-2-yl)-1H-pyrrolo[3,2-b]pyridin-2-yl)pyridin-2-yl)-2-(4-ethylpiperazin-1-yl)acetamide]	0.005	> 15
COc1ccc(-c2c(-c3ccnc(NC(C)=O)c3)[nH]c3cc(N4CCC(OC)CC4)cnc23)nc1 [Example 158, N-(4-(6-(4-Methoxypiperidin-1-yl)-3-(5-methoxypyridin-2-yl)-1H-pyrrolo[3,2-b]pyridin-2-yl)pyridin-2-yl)acetamide]	0.0163	> 15
COc1ccc(-c2c(-c3ccnc(NC(C)=O)c3)[nH]c3cc(N4CCCC4)cnc23)nc1 [Example 167, N-(4-(3-(5-Methoxypyridin-2-yl)-6-(pyrrolidin-1-yl)-1H-pyrrolo[3,2-b]pyridin-2-yl)pyridin-2-yl)acetamide]	0.0171	> 15
CC(=O)Nc1cc(-c2[nH]c3cc(F)cnc3c2-c2ncc(Cl)s2)ccn1 [Example 206, N-(4-(3-(5-Chlorothiazol-2-yl)-6-fluoro-1H-pyrrolo[3,2-b]pyridin-2-yl)pyridin-2-yl)acetamide]	0.0068	0.325
COCCOc1cnc2c(-c3ccc(OC)cn3)c(-c3ccnc(NC(C)=O)c3)[nH]c2c1 [Example 95, N-(4-(6-(2-Methoxyethoxy)-3-(5-methoxypyridin-2-yl)-1H-pyrrolo[3,2-b]pyridin-2-yl)pyridin-2-yl)acetamide]	0.002	> 15
CC(=O)Nc1cc(-c2[nH]c3c(-c4ccnn4C)ccnc3c2-c2cccc(C(F)F)n2)ccn1 [Example 129, N-(4-{3-[6-(Difluoromethyl)pyridin-2-yl]-7-(1-methyl-1H-pyrazol-5-yl)-1H-pyrrolo[3,2-b]pyridin-2-yl}pyridin-2-yl)acetamide]	0.007	> 15
COc1ccc(-c2c(-c3ccnc(N)c3)[nH]c3cc(Cl)cnc23)nc1 [Example 86, 4-[6-Chloro-3-(5-methoxypyridin-2-yl)-1H-pyrrolo[3,2-b]pyridin-2-yl]pyridin-2-amine]	0.008	> 15
O=C(CN1CCC(O)CC1)Nc1cc(-c2[nH]c3cc(Cl)cnc3c2-c2ccc(F)cn2)ccn1 [Example 244, N-(4-(6-Chloro-3-(5-fluoropyridin-2-yl)-1H-pyrrolo[3,2-b]pyridin-2-yl)pyridin-2-yl)-2-(4-hydroxypiperidin-1-yl)acetamide]	0.003	7.82
COc1ccc(-c2c(-c3ccnc(NC(C)=O)c3)[nH]c3cc(C(=O)C(F)(F)F)cnc23)nc1 [Example 296, N-(4-(3-(5-Methoxypyridin-2-yl)-6-(2,2,2-trifluoroacetyl)-1H-pyrrolo[3,2-b]pyridin-2-yl)pyridin-2-yl)acetamide]	0.002	7.78

Results, then the molecule that gave them:

IC50 (HIS-TGFβR1 T204D) [µM]	IC50 (HIS-TGFβR2 WT) [µM]	SMILES
3.54	> 15	CC(=O)Nc1cc(-c2[nH]c3cccnc3c2-c2nccc(Cl)n2)ccn1 [Example 197, N-(4-(3-(4-Chloropyrimidin-2-yl)-1H-pyrrolo[3,2-b]pyridin-2-yl)pyridin-2-yl)acetamide]
0.014	> 15	CC(=O)Nc1cc(-c2[nH]c3cccnc3c2-c2ccc3cnccc3c2)ccn1 [Example 17, N-{4-[3-(Isoquinolin-6-yl)-1H-pyrrolo[3,2-b]pyridin-2-yl]pyridin-2-yl}acetamide]
0.019	0.11	CNC(=O)c1ccnc2c(-c3ccc(OC)nc3)c(-c3ccnc(NC(C)=O)c3)[nH]c12 [Example 57, 2-(2-Acetamidopyridin-4-yl)-3-(6-methoxypyridin-3-yl)-N-methyl-1H-pyrrolo[3,2-b]pyridine-7-carboxamide]
0.001	10.8	CC(=O)Nc1cc(-c2[nH]c3cc(Cl)cnc3c2-c2cccc(C(F)F)n2)ccn1 [Example 171, N-(4-(6-Chloro-3-(6-(difluoromethyl)pyridin-2-yl)-1H-pyrrolo[3,2-b]pyridin-2-yl)pyridin-2-yl)acetamide]
0.11	> 15	COc1ccc(-c2c(-c3ccnc(NC(C)=O)c3)[nH]c3cccnc23)nc1Cl [Example 192, N-(4-(3-(6-Chloro-5-methoxypyridin-2-yl)-1H-pyrrolo[3,2-b]pyridin-2-yl)pyridin-2-yl)acetamide]
0.019	0.66	CC(=O)Nc1cc(-c2[nH]c3cccnc3c2-c2cc(C)ccn2)ccn1 [Example 31, N-{4-[3-(4-Methylpyridin-2-yl)-1H-pyrrolo[3,2-b]pyridin-2-yl]pyridin-2-yl}acetamide]
0.067	1.04	COc1ccc(-c2c(-c3ccnc(NC(C)=O)c3)[nH]c3c(OC)ccnc23)cn1 [Example 269, N-(4-(7-Methoxy-3-(6-methoxypyridin-3-yl)-1H-pyrrolo[3,2-b]pyridin-2-yl)pyridin-2-yl)acetamide]
0.008	0.12	COc1ccc(-c2c(-c3ccnc(NC(C)=O)c3)[nH]c3c(C(C)=O)ccnc23)cn1 [Example 298, N-(4-(7-Acetyl-3-(6-methoxypyridin-3-yl)-1H-pyrrolo[3,2-b]pyridin-2-yl)pyridin-2-yl)acetamide]
0.001	1.85	CC(=O)Nc1cc(-c2[nH]c3cc(Br)cnc3c2-c2cccc(C(F)F)n2)ccn1 [Example 272, N-(4-(6-Bromo-3-(6-(difluoromethyl)pyridin-2-yl)-1H-pyrrolo[3,2-b]pyridin-2-yl)pyridin-2-yl)acetamide]
0.0587	0.424	CC(=O)Nc1cc(-c2[nH]c3cccnc3c2-c2cnn(C)c2)ccn1 [Example 187, N-(4-(3-(1-Methyl-1H-pyrazol-4-yl)-1H-pyrrolo[3,2-b]pyridin-2-yl)pyridin-2-yl)acetamide]
0.001	8.14	CC(=O)Nc1cc(-c2[nH]c3cccnc3c2-c2nc(C)ccc2F)ccn1 [Example 107, N-(4-(3-(3-Fluoro-6-methylpyridin-2-yl)-1H-pyrrolo[3,2-b]pyridin-2-yl)pyridin-2-yl)acetamide]
